Data taken from patent US20100216249A1, “DNA-Based Biosensors” (ISIS INNOVATION LIMITED, priority 2007, published 2010).

Assays:
[1] = target: lacR (Escherichia coli, UniProt P03023); experiment: sensing a lactose analog (IPTG) using DNA biosensors (lacR-dependent DNA coincidence); format: binding, bacteria
Source text: (§1) An example of sensing the concentration of a small molecule using protein-dependent DNA coincidence. In the absence (or low concentration) of the molecule to be sensed (yellow triangle), the transcription factor binds to DNA with high affinity and gives rise to DNA coincidence detected by single-molecule fluorescence.
FIG. 16. Sensing a lactose analog (IPTG) using DNA biosensors. […] A plot of the number of molecules with intermediate stoichiometry can be used as a calibration curve to identify the concentration of the small molecule, provided that the concentration is not much higher or much lower than the Kd for the interaction of the small molecule with the DNA-binding protein.

[2] = target: lac repressor (lacR) (Escherichia coli, UniProt P03023); experiment: Sensing a lactose analog (IPTG) using DNA biosensors: IPTG-dependent loss of lacR-assembled full DNA site, detected by single-molecule fluorescence (protein-dependent DNA coincidence); format: binding, bacteria; conditions: FIG. 16; IPTG interaction with lacR (tetrameric bacterial repressor); fraction of bursts with intermediate stoichiometry vs IPTG concentration
Source text: For the purposes of our assay, the fluorophores can be placed far from the protein binding site (as long as the fluorophores are spaced by less than approximately 200 base pairs); as such, there is no perturbation of protein-DNA binding and no information about the exact structure of the protein-DNA complex is necessary. The concept is described in FIG. 3. In the absence of a DNA-binding protein, for example, a dimeric protein, such as a dimeric transcription factor, two DNA fragments with short and complementary single-stranded DNA tails diffuse independently in solution (top panel). In the presence of a DNA-binding protein that binds specifically to the fully assembled DNA site, the two DNA fragments diffuse as a single molecular complex (a 1:1 donor-acceptor species); such a species can be easily differentiated from the free DNA half-sites and can be counted, giving information about the concentration of the specific DNA-binding protein. […]
as §1, with “fluorescence. […]” for “fluorescence.”

Chain of lacR (P03023 whole entry): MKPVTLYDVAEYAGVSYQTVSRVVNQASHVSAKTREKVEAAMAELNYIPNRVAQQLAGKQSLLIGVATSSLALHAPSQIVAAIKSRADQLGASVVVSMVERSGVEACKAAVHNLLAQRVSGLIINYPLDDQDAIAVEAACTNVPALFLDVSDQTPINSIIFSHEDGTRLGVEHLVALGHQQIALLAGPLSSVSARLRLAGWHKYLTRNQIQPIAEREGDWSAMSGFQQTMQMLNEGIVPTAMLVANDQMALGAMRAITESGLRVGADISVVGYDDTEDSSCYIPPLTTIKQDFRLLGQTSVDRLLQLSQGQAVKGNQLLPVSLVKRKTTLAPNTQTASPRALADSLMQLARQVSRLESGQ
Chain of lac repressor (lacR) (P03023 whole entry): as above

CC(C)S[C@@H]1O[C@H](CO)[C@H](O)[C@H](O)[C@H]1O [IPTG]
lacR assembly of the full DNA site ([1]; high concentration of IPTG, relative fraction of bursts with intermediate stoichiometry decreases): does not assemble the full site | lacR assembly of the full DNA site ([1]; low concentration of IPTG, relative fraction of bursts with intermediate stoichiometry increases): does bind and assemble the full site | Kd [2]: 1 to 2 µM
